# Results: paper PMC10023787, “Trio-pharmacophore DNA-encoded chemical library for simultaneous selection of fragments and linkers” (Nature Communications, 2023)
# Entries after “also recorded” stand apart in the source; their conditions may differ. Read-outs that look alike come from different tables or passages of the source.
# What was measured:
# [1] = biological target: T1, MMP-2 (Homo sapiens, UniProt P08253); test: De novo T-DEL selection against MMP-2, NGS decoding; type: binding; settings: for Enrichment Fold / Count: MMP2 selection; for Count: NGS sequence count per Compound ID (Figure 4a)
# T1 construct: purchased Sino Biological 10082-HNAH
# T1 sequence (P08253 110-660): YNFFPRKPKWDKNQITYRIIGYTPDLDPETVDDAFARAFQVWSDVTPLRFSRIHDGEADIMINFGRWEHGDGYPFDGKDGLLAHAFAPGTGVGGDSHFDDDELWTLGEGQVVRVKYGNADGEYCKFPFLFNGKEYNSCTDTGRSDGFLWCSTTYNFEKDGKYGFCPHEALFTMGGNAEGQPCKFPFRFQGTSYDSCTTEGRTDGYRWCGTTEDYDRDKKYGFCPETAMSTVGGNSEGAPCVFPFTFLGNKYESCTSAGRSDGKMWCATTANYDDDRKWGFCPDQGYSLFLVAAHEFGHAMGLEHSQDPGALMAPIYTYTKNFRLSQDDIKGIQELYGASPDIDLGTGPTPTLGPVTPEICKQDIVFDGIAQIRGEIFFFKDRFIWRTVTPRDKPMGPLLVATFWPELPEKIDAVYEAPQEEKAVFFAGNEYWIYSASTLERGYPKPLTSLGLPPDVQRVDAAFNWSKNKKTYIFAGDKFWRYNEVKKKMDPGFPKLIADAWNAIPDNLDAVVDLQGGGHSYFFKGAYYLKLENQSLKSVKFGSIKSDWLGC
# Excerpt: Matrix metalloproteinases (MMPs) are zinc-dependent endopeptidases capable of degrading and remodeling extracellular matrix components[46],[47]. They are attractive therapeutic targets as high expression levels were detected in various diseases, such as inflammatory diseases, and at different stages of cancers, including metastasis, invasion, and angiogenesis[47]–[53]. As shown in Supplementary Fig. 3c, we performed selections against the two gelatinases (human MMP-2 and human MMP-9) to identify binding fragments for later design and synthesis of small molecule inhibitors. After selection, the three sub-libraries were decoded, and the enrichment was calculated by dividing the post-selection fraction (count/total counts) by the pre-selection fraction (Fig. 4a and Supplementary Fig. 13).
# 4 µg of MMP-2/MMP-9 was dissolved in 100 µl of selection buffer containing 25 mM Tris-base, 10 mM CaCl2, 150 mM NaCl, 0.05% Tween 20, pH 7.5. 10 µl of 4-Aminophenylmercuric acetate (APMA) (100 mM) solution was added to the protein solution and incubated at 37 °C for 1 h. After activation, the solution was added on top of 40 µl pre-washed Ni-NTA resin and incubated for 30 min on a rotary shaker. The supernatant was discarded, and the resin was washed three times with the selection buffer.
# For each independent selection, three sub-libraries were mixed in the selection buffer with a final concentration of 40 nM of each sub-library in 100 µl. The mixture was heat denatured at 90 °C for 1 min and slowly cooled down to allow the formation of the trio-pharmacophore library. The dynamic dual-pharmacophore DEL was provided by DyNAbind GmbH (Merck, DYNA001).
# The assembled library was incubated with the protein-bound solid support for 2 h at RT on a rotary shaker. In parallel, selection on bare solid support served as the negative control to exclude promiscuous binders on the resin. After panning, the supernatant was discarded, and the resin was washed three times with 1 ml selection buffer. Finally, 100 µl of 50 mM Tris buffer, pH 7.4 was added to resuspend the resin and the resin was incubated at 95 °C for 5 min to denature the protein, release, and collect the bound library members.
# The eluted library members were subjected to sample preparation for NGS. NGS preparation was achieved by two-step PCR. First, the individual selection was indexed using primers containing unique sequences corresponding to each selection. The amplified product was purified from 2% agarose gel. Second, the purified DNA from all selections were pooled in equal amount and subjected to the 2nd PCR step to attach sequences compatible with the NGS flow cell and the sequencing primers. NGS was performed by Novogene UK with Novaseq 6000. Raw data files (fastq files) obtained were decoded using a custom python script and excel. The sequence reads corresponding to each sample was retrieved by searching for the correct index unique to each selection. Then, the code region was extracted from each sequence and assigned to the corresponding identity. The count of each code in each selection sample was obtained by looping through the total reads and counting the occurrence of each code. The enrichment fold of each compound was calculated by first, dividing the count by the total count to get the abundance, second, the abundance after the selection was divided by the abundance of pre-selection to reflect the distribution change of the compound. Next, the enrichment fold was plotted against the count for each member of the library to give the scatter plots as in Fig. 4.
# [2] = biological target: T2, MMP-9 (Homo sapiens, UniProt P14780); test: MMP-9 inhibition assay (fluorogenic peptide substrate); type: biochemical; settings: for remaining activity at 0.078016 µM: fragment concentration 0.078016 µM; for remaining activity at 0.39008 µM: fragment concentration 0.39008 µM; for remaining activity at 1.9504 µM: fragment concentration 1.9504 µM; for remaining activity at 9.752 µM: fragment concentration 9.752 µM; for inhibitory effect: in words; for IC50: mean ± SE, n.d: not detected, Fig. 5e prints no unit, µM, read-out: IC50
# T2 construct: purchased Sino Biological 10327-HNAH
# T2 sequence (P14780 107-707 limits assumed): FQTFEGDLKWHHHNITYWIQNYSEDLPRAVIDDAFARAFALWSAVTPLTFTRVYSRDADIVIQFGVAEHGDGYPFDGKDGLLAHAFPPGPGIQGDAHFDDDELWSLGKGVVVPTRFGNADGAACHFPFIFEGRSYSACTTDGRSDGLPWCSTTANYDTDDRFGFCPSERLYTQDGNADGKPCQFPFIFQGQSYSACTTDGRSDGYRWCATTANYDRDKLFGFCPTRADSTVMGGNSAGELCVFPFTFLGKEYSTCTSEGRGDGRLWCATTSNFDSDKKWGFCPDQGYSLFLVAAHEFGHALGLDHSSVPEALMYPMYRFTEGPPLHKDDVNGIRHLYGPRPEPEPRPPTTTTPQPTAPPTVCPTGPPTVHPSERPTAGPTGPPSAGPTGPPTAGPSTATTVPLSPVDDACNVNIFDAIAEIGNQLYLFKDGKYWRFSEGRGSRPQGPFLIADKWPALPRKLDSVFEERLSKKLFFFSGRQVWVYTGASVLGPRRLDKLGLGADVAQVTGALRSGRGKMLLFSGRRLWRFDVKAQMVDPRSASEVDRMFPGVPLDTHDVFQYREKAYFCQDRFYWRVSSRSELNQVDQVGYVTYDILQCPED
# Procedure, shortened: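 Human proMMP-2 and proMMP-9 were activated with 1 mM APMA (37 °C, 2 h), then used at 6.5 nM (MMP-2) or 10 nM (MMP-9) in Tris/NaCl/CaCl2/Brij 35 buffer, pH 7.5. Enzyme was preincubated with compound 30 min at RT; 25 μM DNP-Pro-Leu-Gly-Met-Trp-Ser-Arg substrate was added and fluorescence (ex 280/em 360 nm) followed 30 min. IC50 from logistic fits of Vmax.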
# [3] = Figure 5b, read-out: Normalized activity (Mean)
# [4] = Figure 5b, fragment concentration 48.76 µM, read-out: Normalized activity (Mean)
# [5] = Figure 5b, fragment concentration 243.8 µM, read-out: Normalized activity (Mean)
# [6] = Figure 5b, fragment concentration 1219 µM, read-out: Normalized activity (Mean)
# [7] = MMP-9, concentration 0.08 µM, read-out: Mean (dose-response, Supplementary fig 17)
# [8] = MMP-9, concentration 0.39 µM, read-out: Mean (dose-response, Supplementary fig 17)
# [9] = MMP-9, concentration 1.95 µM, read-out: Mean (dose-response, Supplementary fig 17)
# [10] = MMP-9, concentration 9.75 µM, read-out: Mean (dose-response, Supplementary fig 17)
# [11] = MMP-9, concentration 48.76 µM, read-out: Mean (dose-response, Supplementary fig 17)
# [12] = MMP-9, concentration 243.80 µM, read-out: Mean (dose-response, Supplementary fig 17)
# [13] = MMP-9, concentration 1219.00 µM, read-out: Mean (dose-response, Supplementary fig 17)
structure (smiles),measurement,setting,value
NCc1c[nH]nn1 [Compound 787],MMP2 SL-A Count,"[1]; NGS sequence count of sub-library SL-A building block, de novo T-DEL selection against MMP-2",589
same,MMP2 SL-C Count,"[1]; NGS sequence count of sub-library SL-C building block, de novo T-DEL selection against MMP-2",2395
same,MMP2 SL-A Enrichment Fold,"[1]; sub-library SL-A building block, de novo T-DEL selection against MMP-2",0.846
same,MMP2 SL-C Enrichment Fold,"[1]; sub-library SL-C building block, de novo T-DEL selection against MMP-2",2.519
same,remaining activity at 0.078016 µM,[2]; [3],99.6%
same,remaining activity at 0.39008 µM,[2]; [3],103%
same,remaining activity at 1.9504 µM,[2]; [3],88%
same,remaining activity at 9.752 µM,[2]; [3],89.2%
same,remaining activity at 48.76 µM,[2]; [4],88.6%
same,remaining activity at 243.8 µM,[2]; [5],78.5%
same,remaining activity at 1219 µM,[2]; [6],32.5%
same,remaining activity at 0.08 µM,"[2]; MMP-9, concentration 0.08 µM, read-out: Mean (MMP-9, Supplementary fig 16)",99.6%
same,remaining activity at 0.39 µM,"[2]; MMP-9, concentration 0.39 µM, read-out: Mean (MMP-9, Supplementary fig 16)",103%
same,remaining activity at 1.95 µM,"[2]; MMP-9, concentration 1.95 µM, read-out: Mean (MMP-9, Supplementary fig 16)",88%
same,remaining activity at 9.75 µM,"[2]; MMP-9, concentration 9.75 µM, read-out: Mean (MMP-9, Supplementary fig 16)",89.2%
same,remaining activity at 48.76 µM,"[2]; MMP-9, concentration 48.76 µM, read-out: Mean (MMP-9, Supplementary fig 16)",88.6%
same,remaining activity at 243.8 µM,"[2]; MMP-9, concentration 243.80 µM, read-out: Mean (MMP-9, Supplementary fig 16)",78.5%
same,remaining activity at 1219 µM,"[2]; MMP-9, concentration 1219.00 µM, read-out: Mean (MMP-9, Supplementary fig 16)",32.5%
same,remaining activity at 0.08 µM,"[2]; MMP-9, concentration 0.08 µM, read-out: Mean (MMP-9 dose-response, Supplementary fig 15)",99.6%
same,remaining activity at 0.08 µM,[2]; [7],99.6%
same,remaining activity at 0.39 µM,"[2]; MMP-9, concentration 0.39 µM, read-out: Mean (MMP-9 dose-response, Supplementary fig 15)",103%
same,remaining activity at 0.39 µM,[2]; [8],103%
same,remaining activity at 1.95 µM,"[2]; MMP-9, concentration 1.95 µM, read-out: Mean (MMP-9 dose-response, Supplementary fig 15)",88%
same,remaining activity at 1.95 µM,[2]; [9],88%
same,remaining activity at 9.75 µM,"[2]; MMP-9, concentration 9.75 µM, read-out: Mean (MMP-9 dose-response, Supplementary fig 15)",89.2%
same,remaining activity at 9.75 µM,[2]; [10],89.2%
same,remaining activity at 48.76 µM,"[2]; MMP-9, concentration 48.76 µM, read-out: Mean (MMP-9 dose-response, Supplementary fig 15)",88.6%
same,remaining activity at 48.76 µM,[2]; [11],88.6%
same,remaining activity at 243.8 µM,"[2]; MMP-9, concentration 243.80 µM, read-out: Mean (MMP-9 dose-response, Supplementary fig 15)",78.5%
same,remaining activity at 243.8 µM,[2]; [12],78.5%
same,remaining activity at 1219 µM,"[2]; MMP-9, concentration 1219.00 µM, read-out: Mean (MMP-9 dose-response, Supplementary fig 15)",32.5%
same,remaining activity at 1219 µM,[2]; [13],32.5%
same,inhibitory effect,[2],high µM
same,IC50,[2],784 ± 115 µM
O=C(O)Cn1cnc2c(oc3ccccc32)c1=O [Compound 182],MMP2 SL-A Count,"[1]; NGS sequence count per SL-A member, de novo T-DEL selection against MMP-2 (Figure 4a source data)",3616
same,MMP2 SL-C Count,"[1]; NGS sequence count per SL-C member, de novo T-DEL selection against MMP-2 (Figure 4a source data)",971
same,MMP2 SL-A Enrichment Fold,"[1]; enrichment fold per SL-A member, de novo T-DEL selection against MMP-2 (Figure 4a source data)",1.934
same,MMP2 SL-C Enrichment Fold,"[1]; enrichment fold per SL-C member, de novo T-DEL selection against MMP-2 (Figure 4a source data)",0.9721
same,remaining activity at 0.062464 µM,"[2]; Figure 5b, fragment concentration 0.062464 µM, read-out: Normalized activity (Mean)",93.2%
same,remaining activity at 0.31232 µM,"[2]; Figure 5b, fragment concentration 0.31232 µM, read-out: Normalized activity (Mean)",98.5%
same,remaining activity at 1.5616 µM,"[2]; Figure 5b, fragment concentration 1.5616 µM, read-out: Normalized activity (Mean)",93.8%
same,remaining activity at 7.808 µM,"[2]; Figure 5b, fragment concentration 7.808 µM, read-out: Normalized activity (Mean)",101%
same,remaining activity at 39.04 µM,"[2]; Figure 5b, fragment concentration 39.04 µM, read-out: Normalized activity (Mean)",52.9%
same,remaining activity at 195.2 µM,"[2]; Figure 5b, fragment concentration 195.2 µM, read-out: Normalized activity (Mean)",20%
same,remaining activity at 976 µM,"[2]; Figure 5b, fragment concentration 976 µM, read-out: Normalized activity (Mean)",0%
same,remaining activity at 0.06 µM,"[2]; MMP-9, concentration 0.06 µM, read-out: Mean (MMP-9, Supplementary fig 16)",93.2%
same,remaining activity at 0.31 µM,"[2]; MMP-9, concentration 0.31 µM, read-out: Mean (MMP-9, Supplementary fig 16)",98.5%
same,remaining activity at 1.56 µM,"[2]; MMP-9, concentration 1.56 µM, read-out: Mean (MMP-9, Supplementary fig 16)",93.8%
same,remaining activity at 7.81 µM,"[2]; MMP-9, concentration 7.81 µM, read-out: Mean (MMP-9, Supplementary fig 16)",101%
same,remaining activity at 39.04 µM,"[2]; MMP-9, concentration 39.04 µM, read-out: Mean (MMP-9, Supplementary fig 16)",52.9%
same,remaining activity at 195.2 µM,"[2]; MMP-9, concentration 195.20 µM, read-out: Mean (MMP-9, Supplementary fig 16)",21%
same,remaining activity at 976 µM,"[2]; MMP-9, concentration 976.00 µM, read-out: Mean (MMP-9, Supplementary fig 16)",0%
same,IC50,[2],48.1 µM
O=C(O)CNC(=O)NC12CC3CC(CC(C3)C1)C2 [Compound 66],Enrichment Fold,[1]; sub-library SL-A (Figure 4a),8.24
same,Count,[1]; sub-library SL-A,13510
same,Enrichment Fold,[1]; sub-library SL-C (Figure 4a),0.3913
same,Count,[1]; sub-library SL-C,81
same,remaining activity at 0.078016 µM,[2]; [3],96.6%
same,remaining activity at 0.39008 µM,[2]; [3],92.7%
same,remaining activity at 1.9504 µM,[2]; [3],92.2%
same,remaining activity at 9.752 µM,[2]; [3],92.5%
same,remaining activity at 48.76 µM,[2]; [4],86.3%
same,remaining activity at 243.8 µM,[2]; [5],85%
same,remaining activity at 1219 µM,[2]; [6],74.6%
same,remaining activity at 0.08 µM,[2]; [7],96.6%
same,remaining activity at 0.39 µM,[2]; [8],92.7%
same,remaining activity at 1.95 µM,[2]; [9],92.2%
same,remaining activity at 9.75 µM,[2]; [10],92.5%
same,remaining activity at 48.76 µM,[2]; [11],86.3%
same,remaining activity at 243.8 µM,[2]; [12],85%
same,remaining activity at 1219 µM,[2]; [13],74.6%
same,inhibitory effect,[2],No inhibitory effects could be measured; also recorded: did not exhibit meaningful activity
